Reference: ChEMBL document CHEMBL1201862, “PubChem BioAssay data set” (2004)
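1) Cells in 96-well plates. 2) Compound, 48 h, 5 concentrations. 3) Linear interpolation between surrounding doses. 4) Unreached endpoint = highest concentration. At the GI50, growth is halved.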 Active and inactive are the calls of the source. Rule as the data show it: active = GI50 up to about 1.1 µM and inactive = higher.

Assays:
Test in all cases: NCI-60 cell line screen, 48 h
786-0 = test system: 786-0
CCRF-CEM = test system: CCRF-CEM
EKVX = test system: EKVX
HCT-116 = test system: HCT-116
HL-60 = test system: HL-60
Hs-578T = test system: Hs-578T
K562 = test system: K562
LOX IMVI = test system: LOX IMVI
LXFL 529 = test system: LXFL 529
MOLT-4 = test system: MOLT-4
NCI-H460 = test system: NCI-H460
OVCAR-4 = test system: OVCAR-4
OVCAR-5 = test system: OVCAR-5
RXF 393 = test system: RXF 393
SF-268 = test system: SF-268
SK-MEL-2 = test system: SK-MEL-2
SW-620 = test system: SW-620
U-251 = test system: U-251
UACC-257 = test system: UACC-257
UO-31 = test system: UO-31

Row | SMILES | GI50 (786-0) | GI50 (CCRF-CEM) | GI50 (EKVX) | GI50 (HCT-116) | GI50 (HL-60) | GI50 (Hs-578T) | GI50 (K562) | GI50 (LOX IMVI) | GI50 (LXFL 529) | GI50 (MOLT-4) | GI50 (NCI-H460) | GI50 (OVCAR-4) | GI50 (OVCAR-5) | GI50 (RXF 393) | GI50 (SF-268) | GI50 (SK-MEL-2) | GI50 (SW-620) | GI50 (U-251) | GI50 (UACC-257) | GI50 (UO-31)
1 | CCN(CC)CCC(=O)N1C/C(=C/c2ccccc2)C(=O)/C(=C\c2ccccc2)C1 | 2.16 µM (inactive) | 0.219 µM (active) | 3.42 µM (inactive) | 0.321 µM (active) | 0.383 µM (active) | < 0.01 µM (active) | 0.141 µM (active) | 0.415 µM (active) | 1.56 µM (inactive) | 0.28 µM (active) | 3.24 µM (inactive) | 2.17 µM (inactive) | 3.45 µM (inactive) | 1.51 µM (inactive) | 2.04 µM (inactive) | 2.19 µM (inactive) | 0.195 µM (active) | 0.762 µM (active) | 2.1 µM (inactive) | 1.71 µM (inactive)
2 | COc1ccc2c(=O)c([Se]c3coc4cc(OC)ccc4c3=O)coc2c1 | 44.5 µM (inactive) | 46.7 µM (inactive) | 46.8 µM (inactive) | 19.8 µM (inactive) | 40.4 µM (inactive) |  | > 100 µM (inactive) | > 100 µM (inactive) | 32.5 µM (inactive) | 51.8 µM (inactive) | 18.7 µM (inactive) | 44.6 µM (inactive) | > 100 µM (inactive) | 48.6 µM (inactive) | > 100 µM (inactive) | > 100 µM (inactive) | > 100 µM (inactive) | 42.8 µM (inactive) | > 100 µM (inactive) | 57.4 µM (inactive)
3 | COc1ccc(C(=C[N+](=O)[O-])c2ccc(OC)cc2)cc1 | 20.8 µM (inactive) | 10.1 µM (inactive) | 42.3 µM (inactive) | 8.05 µM (inactive) | 5.19 µM (inactive) |  | 3.69 µM (inactive) | 9.44 µM (inactive) | 16.2 µM (inactive) | 3.17 µM (inactive) | 10.7 µM (inactive) | 34.4 µM (inactive) | 38.8 µM (inactive) | 12.3 µM (inactive) | 20 µM (inactive) | 6.14 µM (inactive) | 4.02 µM (inactive) | 11.3 µM (inactive) | 8.59 µM (inactive) | 17.7 µM (inactive)
4 | O=C(Nc1ccc(Sc2ccc(/N=N/c3c(O)c(S(=O)(=O)O)cc4cc(S(=O)(=O)O)ccc34)cc2)cc1)c1ccc(/N=N/c2c(O)ccc3c(S(=O)(=O)O)cc(S(=O)(=O)O)cc23)cc1 | 37.6 µM (inactive) | 24.7 µM (inactive) | 17.3 µM (inactive) | 49.3 µM (inactive) | 10.3 µM (inactive) |  | 10.1 µM (inactive) | 15.5 µM (inactive) | 25.2 µM (inactive) | 12.8 µM (inactive) | 28.1 µM (inactive) | 33.8 µM (inactive) | 33.4 µM (inactive) | 50.6 µM (inactive) | 41 µM (inactive) | 27.9 µM (inactive) | 38.5 µM (inactive) | 41.2 µM (inactive) | 11.2 µM (inactive) | 41.2 µM (inactive)
5 | CCCCCCCCCCCCC(CC)CCCCC(=O)O (configuration not stated) | 31.8 µM (inactive) | 22.6 µM (inactive) | > 56.2 µM (inactive) | > 53.1 µM (inactive) | > 63.1 µM (inactive) |  | 40.6 µM (inactive) | > 65.5 µM (inactive) | > 100 µM (inactive) | 27 µM (inactive) | > 62.4 µM (inactive) | > 100 µM (inactive) | > 100 µM (inactive) | > 60 µM (inactive) | > 100 µM (inactive) | > 100 µM (inactive) | > 61.2 µM (inactive) | > 47.6 µM (inactive) | > 100 µM (inactive) | > 100 µM (inactive)
6 | COc1cc2c(cc1OC)C1(c3ccccc3)ON=C(c3ccccc3)N1CS2 (configuration not stated) | > 100 µM (inactive) | 39.3 µM (inactive) | > 100 µM (inactive) | 28.7 µM (inactive) | 16.1 µM (inactive) |  | 52.7 µM (inactive) | > 100 µM (inactive) | > 100 µM (inactive) | 16.1 µM (inactive) | > 100 µM (inactive) | > 100 µM (inactive) | > 100 µM (inactive) | 63 µM (inactive) | > 100 µM (inactive) | > 100 µM (inactive) | > 100 µM (inactive) | > 100 µM (inactive) | > 100 µM (inactive) | > 100 µM (inactive)
7 | Cc1cc2occ(C)c(=O)c2c2c1OC(C)(C)S2 | > 100 µM (inactive) | 51.1 µM (inactive) | > 100 µM (inactive) | > 100 µM (inactive) | 38.1 µM (inactive) |  | 51.9 µM (inactive) | > 100 µM (inactive) | > 100 µM (inactive) | 37.3 µM (inactive) | > 100 µM (inactive) | > 100 µM (inactive) | > 100 µM (inactive) | 88.1 µM (inactive) | > 100 µM (inactive) | > 100 µM (inactive) | > 100 µM (inactive) | > 100 µM (inactive) | > 100 µM (inactive) | > 100 µM (inactive)
8 | COc1cc2c3c(c1OC)-c1ccccc1C(C(OC(C)=O)c1ccccc1)C3N(C)CC2 (configuration not stated) | 74.5 µM (inactive) | 25.1 µM (inactive) | > 100 µM (inactive) | 34.5 µM (inactive) | 5.4 µM (inactive) |  | > 10 µM (inactive) | 44.9 µM (inactive) | 19.7 µM (inactive) | 7.59 µM (inactive) | 30.5 µM (inactive) | 9.16 µM (inactive) | > 100 µM (inactive) | 70.6 µM (inactive) | 93.8 µM (inactive) | 17.2 µM (inactive) | 65.3 µM (inactive) | 34 µM (inactive) | 58.5 µM (inactive) | 57.1 µM (inactive)
9 | COc1ccc(CNc2cc(OC)c(OC)c(OC)c2)cc1 | 12.2 µM (inactive) | 4.48 µM (inactive) | 14.6 µM (inactive) | 3.37 µM (inactive) | 2.67 µM (inactive) |  | 2.18 µM (inactive) | 5.94 µM (inactive) | 7.64 µM (inactive) | 3.98 µM (inactive) | 3.47 µM (inactive) | 12.4 µM (inactive) | > 25.3 µM (inactive) | 5.89 µM (inactive) | 3.43 µM (inactive) | 2.72 µM (inactive) | 3.31 µM (inactive) | 3.78 µM (inactive) | 7.21 µM (inactive) | 10.4 µM (inactive)
